Data: PMC11310081, “Deep-learning-enabled antibiotic discovery through molecular de-extinction” (Nature Biomedical Engineering, 2024)
Peptide text beside a SMILES is read from it.

Assays:
[1] = tested on: 11 clinically relevant bacterial pathogens; format: cell-based; conditions: Supplementary Dataset 2; against the 11 pathogens tested
Source text: The following Gram-negative bacteria were used in our study: A. baumannii ATCC 19606, E. coli ATCC 11775, E. coli AIC221 (E. coli MG1655 phnE_2::FRT), E. coli AIC222 (E. coli MG1655 pmrA53 phnE_2::FRT (colistin resistant)), K. pneumoniae ATCC 13883, P. aeruginosa PAO1 and P. aeruginosa PA14. The following Gram-positive bacteria were also used in our study: S. aureus ATCC 12600, S. aureus ATCC BAA-1556 (methicillin-resistant strain), E. faecalis ATCC 700802 (vancomycin-resistant strain) and E. faecium ATCC 700221 (vancomycin-resistant strain). Bacteria were grown from frozen stocks and plated on Luria–Bertani (LB) or Pseudomonas isolation agar plates (P. aeruginosa strains) and incubated overnight at 37 °C. After the incubation period, a single colony was transferred to 5 ml of LB medium, and cultures were incubated overnight (16 h) at 37 °C. The following day, an inoculum was prepared by diluting the overnight cultures 1:100 in 5 ml of the respective media and incubating them at 37 °C until bacteria reached logarithmic phase (OD600 = 0.3–0.5).
The in vitro antimicrobial activity of the peptides was assessed by using the broth microdilution assay. […] Aqueous solutions of the peptides were added to the plate at concentrations ranging from 1 to 64 μmol l^−1. […] The optical density of the plates was measured at 600 nm using a spectrophotometer. All assays were done as three biological replicates.

A. baumannii ATCC 19606 [2] = experiment: Neutropenic thigh infection mouse model; format: in vivo, CD-1 mice; conditions: neutropenic CD-1 mice
Protocol: Six-week-old female CD-1 mice from Charles River (stock number 18679700-022) were rendered neutropenic by two doses of cyclophosphamide (150 mg kg^−1) applied intraperitoneally with an interval of 72 h. One day after the last dose of cyclophosphamide, the mice were injected intramuscularly in their right thigh with a bacterial load of 10^6 c.f.u. ml^−1 of A. baumannii ATCC 19606 cells. The bacteria had been grown in LB broth, washed twice with PBS (pH 7.4), and resuspended to the desired concentration. Two hours after bacterial injection, peptides resuspended in water were administered intraperitoneally, and the untreated mice were inoculated with the same volume of deionized water. Before each injection, mice were anaesthetized with isoflurane and monitored for respiratory rate and pedal reflexes. Next, we monitored the establishment of the infection and euthanized the mice. The infected area was excised 2 days and 4 days post infection, homogenized using a bead beater for 20 min (25 Hz), and then serially diluted tenfold for quantification of colony-forming units in MacConkey agar plates. The experiments were performed with six mice per group. All experiments were performed blindly, and no animal subjects were excluded from the analysis. The thigh infection mouse model was approved by the University Laboratory Animal Resources from the University of Pennsylvania (protocol 807055). Statistical significance was determined using one-way ANOVA followed by Dunnett’s test in log10-transformed data to mitigate the effect of outliers; P values are presented for each group, with all groups being compared to the untreated control group.

A. baumannii ATCC 19606 [3] = experiment: Skin abscess infection mouse model; format: in vivo, CD-1 mice; conditions: CD-1 mice
Protocol: A. baumannii ATCC 19606 cells were grown in LB medium to an OD600 = 0.5. Cells were washed twice with sterile phosphate-buffered saline (PBS) (pH 7.4, 13,000 r.p.m. for 2 min) and resuspended to a final concentration of 10^6 (A. baumannii cells) colony-forming units per millilitre (c.f.u. ml^−1). Six-week-old female CD-1 mice from Charles River (stock number 18679700-022) were anaesthetized with isoflurane, and their backs were sterilized and shaved. A superficial linear skin abrasion was made with a needle to damage the stratum corneum and upper layer of the epidermis. An aliquot of 20 μl containing the bacterial load resuspended in PBS was inoculated over the scratched area. Two hours after the infection, peptides diluted in water at their MIC value were administered to the infected area, and the untreated mice were inoculated with the same volume of deionized water. Mice were euthanized, and the area of scarified skin was excised 2 days and 4 days post infection, homogenized using a bead beater for 20 min (25 Hz) and then serially diluted tenfold for quantification of colony-forming units. This quantitative method was used as it has been established to accurately reflect the number of bacteria present in a given infected area. MacConkey agar plates were used as A. baumannii colonies appear purple in this medium and can easily be distinguished from other strains. The experiments were performed with six mice per group. All experiments were performed blindly, and no animal subjects were excluded from the analysis. The skin abscess infection mouse model was approved by the University Laboratory Animal Resources from the University of Pennsylvania (protocol 806763). Statistical significance was determined using one-way analysis of variance (ANOVA) followed by Dunnett’s test in log10-transformed data to mitigate the effect of outliers; P values are presented for each group, with all groups being compared to the untreated control group.

[4] = A. baumannii ATCC 19606, day 2, replicate 1
[5] = A. baumannii ATCC 19606, day 2, replicate 2
[6] = A. baumannii ATCC 19606, day 2, replicate 3
[7] = A. baumannii ATCC 19606, day 2, replicate 4
[8] = A. baumannii ATCC 19606, day 2, replicate 5
[9] = A. baumannii ATCC 19606, day 2, replicate 6
[10] = A. baumannii ATCC 19606, day 4, replicate 1
[11] = A. baumannii ATCC 19606, day 4, replicate 2
[12] = A. baumannii ATCC 19606, day 4, replicate 3
[13] = A. baumannii ATCC 19606, day 4, replicate 4
[14] = A. baumannii ATCC 19606, day 4, replicate 5
[15] = A. baumannii ATCC 19606, day 4, replicate 6

CC[C@H](C)[C@H](NC(=O)[C@H](CCCCN)NC(=O)[C@H](CC(C)C)NC(=O)[C@H](Cc1c[nH]cn1)NC(=O)[C@@H](N)CC(C)C)C(=O)N[C@@H](CC(C)C)C(=O)N[C@@H](CCCCN)C(=O)N[C@H](C(=O)N[C@H](C(=O)N[C@@H](CCCNC(=N)N)C(=O)N[C@@H](CC(C)C)C(=O)N[C@@H](CC(C)C)C(=O)O)[C@@H](C)CC)[C@@H](C)CC [Elephasin-1] (H-LHLKILKIIRLL-OH; N-terminus and C-terminus assumed)
Active or Inactive [1]: Active

CC[C@H](C)[C@H](N)C(=O)N[C@H](C(=O)NCC(=O)N[C@@H](CC(N)=O)C(=O)N[C@H](C(=O)N[C@@H](Cc1ccccc1)C(=O)NCC(=O)N[C@@H](Cc1ccccc1)C(=O)N[C@@H](CCCCN)C(=O)N[C@@H](C)C(=O)N[C@@H](CC(C)C)C(=O)N[C@@H](CCCNC(=N)N)C(=O)N[C@@H](C)C(=O)N[C@@H](CC(C)C)C(=O)N[C@@H](CCCNC(=N)N)C(=O)N[C@@H](CC(C)C)C(=O)O)C(C)C)C(C)C [Hesperelin-4] (H-IVGNVFGFKALRALRL-OH; N-terminus and C-terminus assumed)
Active or Inactive [1]: Active

polymyxin B [reference compound]
bacterial count, thigh infection (Panel 6d) (A. baumannii ATCC 19606 [2]; [4]): 20000
bacterial count, thigh infection (Panel 6d) (A. baumannii ATCC 19606 [2]; [5]): 80000
bacterial count, thigh infection (Panel 6d) (A. baumannii ATCC 19606 [2]; [6]): 200000
bacterial count, thigh infection (Panel 6d) (A. baumannii ATCC 19606 [2]; [7]): 40000
bacterial count, thigh infection (Panel 6d) (A. baumannii ATCC 19606 [2]; [8]): 40000
bacterial count, thigh infection (Panel 6d) (A. baumannii ATCC 19606 [2]; [9]): 200000
bacterial count, thigh infection (Panel 6d) (A. baumannii ATCC 19606 [2]; [10]): 200000
bacterial count, thigh infection (Panel 6d) (A. baumannii ATCC 19606 [2]; [11]): 400000
bacterial count, thigh infection (Panel 6d) (A. baumannii ATCC 19606 [2]; [12]): 1200000
bacterial count, thigh infection (Panel 6d) (A. baumannii ATCC 19606 [2]; [13]): 600000
bacterial count, thigh infection (Panel 6d) (A. baumannii ATCC 19606 [2]; [14]): 600000
bacterial count, thigh infection (Panel 6d) (A. baumannii ATCC 19606 [2]; [15]): 200000
bacterial count, skin abscess (Panel 6b) (A. baumannii ATCC 19606 [3]; [4]): 4000
bacterial count, skin abscess (Panel 6b) (A. baumannii ATCC 19606 [3]; [5]): 2000
bacterial count, skin abscess (Panel 6b) (A. baumannii ATCC 19606 [3]; [6]): 8000
bacterial count, skin abscess (Panel 6b) (A. baumannii ATCC 19606 [3]; [7]): 6000
bacterial count, skin abscess (Panel 6b) (A. baumannii ATCC 19606 [3]; [8]): 1400
bacterial count, skin abscess (Panel 6b) (A. baumannii ATCC 19606 [3]; [9]): 400
bacterial count, skin abscess (Panel 6b) (A. baumannii ATCC 19606 [3]; [10]): 8000
bacterial count, skin abscess (Panel 6b) (A. baumannii ATCC 19606 [3]; [11]): 10000
bacterial count, skin abscess (Panel 6b) (A. baumannii ATCC 19606 [3]; [12]): 600
bacterial count, skin abscess (Panel 6b) (A. baumannii ATCC 19606 [3]; [13]): 600
bacterial count, skin abscess (Panel 6b) (A. baumannii ATCC 19606 [3]; [14]): 200
bacterial count, skin abscess (Panel 6b) (A. baumannii ATCC 19606 [3]; [15]): 400
